Legend:
[1] = Determining the dissolution rate using the true dissolution method (Sirius inForm, pressed disks); type: physicochemical; settings: for times more soluble than crystalline form 2 of lesinurad free acid: ratio of dissolution rates measured under identical conditions; for dissolution rate: true dissolution disks d = 3 mm, 40 ml acetate-phosphate buffer pH 6.8, 100 rpm, UV/Vis
Protocol: The dissolution rate was measured using a Sirius inForm dissolution device. Disks for true dissolution with the surface area available for dissolution of 0.071 cm^2 (d = 0.3 cm) were prepared using a Specac press. The pressing time was 2x2 minutes at the pressing pressure of 100 kg. The dissolution was carried out in 40 ml of a solution at pH 6.8 (38 ml of 150mM NaCl + 2 ml of 150mM NaCl, 100mM CH3COONa, 100mM NaH2PO4), at the constant speed of 100 rpm. Samples were drawn at 5-second intervals and the concentration of dissolved lesinurad was determined by means of an integrated UV/Vis spectrophotometric probe in the wavelength range of 230-400 nm. Disks for measuring true dissolution (d = 3 mm) were produced from the prepared solid forms of lesinurad, i.e. free acid form 2 (reference form), tromethamine salt form I and diethylamine salt, and solid form of lesinurad with urea (form I), with the use of a press. The dissolution was carried out in 40 ml of an acetate-phosphate buffer at pH 6,8 (150mM NaCl, 5mM CH3COONa, 5mM NaH2PO4), at the constant stirring speed of 100 rpm. Samples were drawn at 5-second intervals and the concentration of dissolved lesinurad was determined by means of a UV/Vis spectrophotometer.

[2] = Chemical and polymorphic stability test of the crystalline form; type: physicochemical
Protocol: The prepared crystalline form I was subjected to tests from the point of view of chemical and polymorphic stability. […] The same results were also obtained after 3 days at 80°C.

Row | SMILES | times more soluble than crystalline form 2 of lesinurad free acid ([1]; listed as solid form of lesinurad with tromethamine) | dissolution rate [1] [mg/min/cm^2] | dissolution rate ([1]; listed as lesinurad with tromethamine) [mg/min/cm^2] | chemical and polymorphic stability ([2]; after 3 months at 40°C / 75% humidity) | chemical and polymorphic stability ([2]; after 3 days at 80°C) | times more soluble than crystalline form 2 of lesinurad free acid ([1]; listed as salt with diethylamine) [times] | dissolution rate ([1]; listed as lesinurad with dimethylamine) [mg/min/cm^2] | dissolution rate ([1]; listed as crystalline form 2 of lesinurad free acid) [mg/min/cm^2]
1 | O=C(O)CSc1nnc(Br)n1-c1ccc(C2CC2)c2ccccc12 [lesinurad with tromethamine (form I)] | about 17 times | 7.44 | 7.44 | did not show any signs of chemical degradation or transition to a different polymorphic form | same results | – | – | –
2 | O=C(O)CSc1nnc(Br)n1-c1ccc(C2CC2)c2ccccc12 [lesinurad with diethylamine] | – | 21.58 | – | – | – | ~50 | 21.58 | –
3 | O=C(O)CSc1nnc(Br)n1-c1ccc(C2CC2)c2ccccc12 [lesinurad free acid (form 2), 2-(5-bromo-4-(1-cyclopropylnaphtalen-4-yl)-4H-1,2,4-triazol-3-ylthio)acetic acid, reference compound] | – | 0.42 | – | – | – | – | – | 0.42

Source: patent EP3372592A1, “SOLID FORMS OF LESINURAD AMINE SALTS” (Zentiva, k.s., priority 2017, dated 2018)
